Measurements published in patent US20230355647A1, “Marker for determining anti-cancer effects of mitochondrial oxidative phosphorylation pathway inhibitor” (NANJING SHIJIANG MEDICINE TECHNOLOGY CO., LTD, priority 2020, published 2023).
pIC50: −log10 of the molar value.

Tests used:
786-O = test: Cell viability (CellTiter-Glo), 786-O; format: cell-based; conditions: Homo sapiens, 786-0; 786-O cell line, 3-4 days of culture
Description: (§1) Cell viability was detected using the Promega CellTiter-Glo kit, the kit reflected cell viability by directly measuring intracellular ATP content. The inhibitory effect (IC50 value) of Gboxin, a mitochondrial oxidative phosphorylation pathway inhibitor, on different tumor cell lines was tested in the Example. The name, source, and culture condition of each tumor cell line were as follows: Cell line 786-O (ATCC, No. CRL-1932) was cultured in 10% fetal bovine serum-containing RPMI1640 medium (+P/S). […] Cell viability was detected using the Promega CellTiter-Glo kit, the kit reflected cell viability by directly measuring intracellular ATP content.

SF126 = test: Cell viability (CellTiter-Glo), SF126; format: cell-based; conditions: Homo sapiens, SF-126; SF126 cell line, 3-4 days of culture
Description: as §1, with “SF126 (JCRB,” for “786-O (ATCC,”, “IFO50286)” for “CRL-1932)”, “EMEM” for “RPMI1640”

SW48 = test: Cell viability (CellTiter-Glo), SW48; format: cell-based; conditions: Homo sapiens; SW48 cell line, 3-4 days of culture
Description: as §1, with “SW48” for “786-O”, “CCL-231)” for “CRL-1932)”, “Leibovitz's L-15” for “RPMI1640”

WSU-DLCL2 = test: Cell viability (CellTiter-Glo), WSU-DLCL2; format: cell-based; conditions: Homo sapiens, WSUDLCL2; WSU-DLCL2 cell line, 3-4 days of culture
Description: as §1, with “WSU-DLCL2 (DSMZ,” for “786-O (ATCC,”, “ACC-575)” for “CRL-1932)”

GB-1 = test: Cell viability (CellTiter-Glo), GB-1; format: cell-based; conditions: Homo sapiens; GB-1 cell line, 3-4 days of culture
Description: Cell viability was detected using the Promega CellTiter-Glo kit, the kit reflected cell viability by directly measuring intracellular ATP content. The inhibitory effect (IC50 value) of Gboxin, a mitochondrial oxidative phosphorylation pathway inhibitor, on different tumor cell lines was tested in the Example. The name, source, and culture condition of each tumor cell line were as follows:
Cell line GB-1 (JCRB, No. IFO50489) was cultured in 10% fetal bovine serum-containing DMEM medium (+P/S).
The above tumor cells were cultured in the relevant medium (+P/S), and incubated for 3 h, then the gradient diluted Gboxin was added, and IC50 (50% inhibiting concentration) was measured after 3-4 days of culture.
Cell viability was detected using the Promega CellTiter-Glo kit, the kit reflected cell viability by directly measuring intracellular ATP content. In this experiment, the IC50 values of Oligomycin A or IACS-010759, a mitochondrial oxidative phosphorylation pathway inhibitor, on different tumor cells was determined.
The different tumor cells were cultured in the relevant medium (+P/S) as shown in Example 2, and incubated for 3 h, then the gradient diluted Oligomycin A or IACS-010759 was added respectively, and IC50 (50% inhibiting concentration) of Oligomycin A or IACS-010759 on different tumor cells was measured after 3-4 days of culture.

[1] = system: mitochondrial oxidative phosphorylation pathway; test: Oxygen consumption of NCI-H82 cell, Seahorse XFe metabolic analyzer; format: cell-based, human; conditions: detection within 0.5 h, compared with control group, FIG. 1 (n=3)
Source text: The oxygen was mainly consumed by mitochondrial oxidative phosphorylation pathway in the cell, thus the determination of oxygen consumption rate (OCR) of mitochondria could directly reflect the activity of mitochondrial oxidative phosphorylation pathway. The oxygen consumption of NCI-H82 cell in the presence or absence of Oligomycin A, Gboxin, S-Gboxin and IACS-010759, mitochondrial oxidative phosphorylation pathway inhibitors, was detected using Seahorse XFe metabolic analyzer in the present Example. NCI-H82 cell (ATCC, No. […] The control group in absence of mitochondrial oxidative phosphorylation pathway inhibitor was set. The detection of cell oxygen consumption was finished within 0.5 h.

CFPAC-1 = test: Cell viability (CellTiter-Glo), CFPAC-1; format: cell-based; conditions: Homo sapiens; CFPAC-1 cell line, 3-4 days of culture
Description: as §1, with “CFPAC-1” for “786-O”, “CRL-1918)” for “CRL-1932)”, “IMDM” for “RPMI1640”

[2] = system: brain tumors and acute myeloid leukemia; conditions: study published in Nature Medicine (2018); cited from earlier work
NCI-H82 = test: Cell viability (CellTiter-Glo), NCI-H82; format: cell-based; conditions: Homo sapiens; NCI-H82 cell line, 3-4 days of culture
Description: as §1, with “NCI-H82” for “786-O”, “HTB-175)” for “CRL-1932)”

MDA-MB-453 = test: Cell viability (CellTiter-Glo), MDA-MB-453; format: cell-based; conditions: Homo sapiens; MDA-MB-453 cell line, 3-4 days of culture
Description: as §1, with “MDA-MB-453” for “786-O”, “HTB-131)” for “CRL-1932)”, “Leibovitz's L-15” for “RPMI1640”

G-401 = test: Cell viability (CellTiter-Glo), G-401; format: cell-based; conditions: Homo sapiens; G-401 cell line, 3-4 days of culture
Description: as §1, with “G-401” for “786-O”, “CRL-1441)” for “CRL-1932)”, “McCoy's 5a” for “RPMI1640”

NCI-H82-NNMT^ov tumor = test: Subcutaneous NCI-H82-NNMT^ov tumor-bearing nude mice; format: in vivo; conditions: nude mice inoculated with NCI-H82-NNMT^ov; 10 mg/kg/day intraperitoneally; compared with effect on NCI-H82 tumor; FIG. 26
Source text: (§2) To verify whether cells sensitive to mitochondrial oxidative phosphorylation pathway […] still maintained the sensitivity to oxidative phosphorylation pathway inhibitors in vivo, S-Gboxin was used to test the effectiveness in tumor-bearing mice subcutaneously inoculated with sensitive cells (NCI-H82) and insensitive cells (CFPAC-1).
(§3) 5×10^6 of NCI-H82, NCI-H82-NNMT^ov (inserting the NNMT gene into NCI-H82 cell using a viral vector to overexpress NNMT protein) and CFPAC-1 tumors were subcutaneously inoculated in nude mice to establish tumor-bearing mice. Each group of tumor-bearing mice was injected intraperitoneally with the S-Gboxin (a mitochondrial oxidative phosphorylation pathway inhibition) at a dose of 10 mg/kg/day, the inhibition effect of S-Gboxin on the tumor was investigated. The mice in control group was injected intraperitoneally with solvent vehicle in the same method, and the tumor volume was calculated as follows: tumor volume=½ length×width 2. The experiment result was shown in FIG. 25, FIG. 26, and FIG. 27.

CFPAC-1 tumor = test: Subcutaneous CFPAC-1 tumor-bearing nude mice; format: in vivo; conditions: nude mice inoculated with CFPAC-1; 10 mg/kg/day intraperitoneally; vs solvent vehicle; FIG. 27
Source text: as §2, §3

NCI-H82 tumor = test: Subcutaneous NCI-H82 tumor-bearing nude mice; format: in vivo; conditions: nude mice inoculated with NCI-H82; 10 mg/kg/day intraperitoneally; vs solvent vehicle; FIG. 25
Source text: as §2, §3

| Structure (SMILES) | pIC50 (786-O) | pIC50 (SF126) | pIC50 (SW48) | pIC50 (WSU-DLCL2) | pIC50 (GB-1) | oxygen consumption of NCI-H82 cells ([1]; 1 μM inhibitor) | pIC50 (CFPAC-1) | inhibitory effect on brain tumors and acute myeloid leukemia [2] | pIC50 (NCI-H82) | pIC50 (MDA-MB-453) | pIC50 (G-401) | inhibitory effect on subcutaneous tumor (tumor volume) (NCI-H82-NNMT^ov tumor) | oxygen consumption of NCI-H82 cells ([1]; 5 μM inhibitor) | inhibitory effect on subcutaneous tumor (tumor volume) (CFPAC-1 tumor) | inhibition of subcutaneous tumor (tumor volume) (NCI-H82 tumor) |
| --- | --- | --- | --- | --- | --- | --- | --- | --- | --- | --- | --- | --- | --- | --- | --- |
| Cc1nc(-c2nc(-c3ccc(OC(F)(F)F)cc3)no2)nn1Cc1cccc(N2CCC(S(C)(=O)=O)CC2)c1 [IACS-010759] | < 4.30 | < 4.82 | > 8.00 | 5.45 | < 4.82 | significantly inhibit | 4.25 | excellent inhibitory effect | 6.77 | > 8.00 | 5.83 |  |  |  |  |
| CC(C)[C@@H]1CC[C@@H](C)C[C@H]1OC(=O)Cn1c(-c2cccc(C(F)(F)F)c2)[n+](C)c2ccccc21.[I-] [S-Gboxin] |  |  |  |  |  |  |  |  |  |  |  | significantly weaker | significantly inhibit | no significant inhibitory effect | significantly inhibit |
